Data set [1] is described as follows: Stability of compound in simulated gastric fluid assessed as parent compound remaining at 10 uM after 12 hrs by HPLC analysis relative to control.
A further data set concerns Rattus norvegicus. Description: Antithrombotic activity in FeCl3-induced Sprague-Dawley rat model of arterial thrombosis assessed as reduction in thrombus weight at 20 mg/kg, po qd administered as single dose for 7 days and measured 2 hrs post last dose. The note with it: time 7 day. Further details: scale not given: the % may be the effect or the level left. The class given is functional.

Data set [2] can be described thus: Elimination half-life in male Sprague-Dawley rat at 10 mg/kg, po administered as single dose by LC-MS analysis. The note with it: in vivo, read-out: beta t1/2 (converted). The data set is classed as ADME, organism-based.
Data set [3] is described as follows: Drug metabolism in rat liver microsomes assessed as 1-[(4-Cyanobenzyl)oxy]-2-(3-cyanophenyl)-4-methyl-1H-imidazole-5-carboxylic acid formation at 0.2 uM in presence of NADPH measured up to 90 mins by LC-MS/MS analysis. The class given is ADME, Microsome. The note with it: 1.5 h. For orientation: Microsomes from liver hold many membrane-bound enzymes, among them those of drug oxidation.

A short description of data set [4]: Stability of compound in simulated intestinal fluid assessed as parent compound remaining at 10 uM after 12 hrs by HPLC analysis relative to control.
Data set [5] in a line: Metabolic stability of compound in rat liver microsomes assessed as elimination half-life at 0.2 uM in presence of NADPH by LC-MS/MS analysis. The note with it: read-out: beta t1/2. The data set is classed as ADME, Microsome.
Data set [6] in a line: Apparent volume of distribution in male Sprague-Dawley rat at 10 mg/kg, po administered as single dose by LC-MS analysis. The note with it: in vivo. The data set is classed as ADME, organism-based.
In another data set the target is CYP3A4 (Homo sapiens, UniProt P08684). Description: Inhibition of CYP3A4 in human liver microsomes at 10 uM using testosterone as substrate preincubated for 5 mins followed by NADPH generating system addition and measured after 120 mins by LC-MS/MS analysis relative to control. The class given is ADME. The note with it: probe testosterone, time 125 min.
A short description of data set [7]: Metabolic stability of compound in human liver microsomes assessed as elimination half-life at 0.2 uM in presence of NADPH by LC-MS/MS analysis. The class given is ADME, Microsome. The note with it: read-out: beta t1/2.
Data set [8] is described as follows: Tmax in male Sprague-Dawley rat at 10 mg/kg, po administered as single dose by LC-MS analysis. The class given is ADME, organism-based. The note with it: in vivo.
Data set [9] can be described thus: AUC (0 to infinity) in male Sprague-Dawley rat at 10 mg/kg, po administered as single dose by LC-MS analysis. On the set-up: route oral, time infinity, dose 10 mg/kg. The note with it: in vivo. The data set is classed as ADME, organism-based.
The test system of the next data set is Plasma. Description: Antiplatelet activity in rabbit platelet-rich plasma assessed as inhibition of ADP-induced platelet aggregation preincubated for 5 mins followed by ADP addition measured every 1 min for up to 6 mins by microplate reader analysis. The data set is classed as functional, cell-free. The note with it: Oryctolagus cuniculus.
Data set [10] can be described thus: Cmax in male Sprague-Dawley rat at 10 mg/kg, po administered as single dose by LC-MS analysis. The class given is ADME, organism-based. The note with it: in vivo. Further details: route oral, dose 10 mg/kg.
The target in a further data set is T1, CYP2A6 (Homo sapiens, UniProt P11509).
T1 sequence (P11509 whole entry): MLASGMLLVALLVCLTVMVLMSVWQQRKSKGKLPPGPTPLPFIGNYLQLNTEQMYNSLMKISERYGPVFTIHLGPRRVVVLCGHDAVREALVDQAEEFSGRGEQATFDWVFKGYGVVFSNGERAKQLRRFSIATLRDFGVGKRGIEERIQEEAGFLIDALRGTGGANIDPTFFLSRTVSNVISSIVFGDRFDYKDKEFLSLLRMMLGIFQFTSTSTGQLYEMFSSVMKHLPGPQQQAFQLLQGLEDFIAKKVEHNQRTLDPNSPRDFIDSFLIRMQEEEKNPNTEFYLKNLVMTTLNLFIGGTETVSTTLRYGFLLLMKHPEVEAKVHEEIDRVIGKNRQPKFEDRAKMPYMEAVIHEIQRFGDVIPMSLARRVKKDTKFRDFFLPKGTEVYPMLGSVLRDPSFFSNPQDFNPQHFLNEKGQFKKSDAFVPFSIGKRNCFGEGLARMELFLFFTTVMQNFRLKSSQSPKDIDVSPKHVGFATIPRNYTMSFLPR
Description: Inhibition of CYP2A6 in human liver microsomes at 10 uM using coumarin as substrate preincubated for 5 mins followed by NADPH generating system addition and measured after 120 mins by LC-MS/MS analysis relative to control. The data set is classed as ADME. The note with it: probe coumarin, time 125 min.

A further data set deals with CYP2C19 (Homo sapiens, UniProt P33261). Description: Inhibition of CYP2C19 in human liver microsomes at 10 uM using S-mephenytoin as substrate preincubated for 5 mins followed by NADPH generating system addition and measured after 120 mins by LC-MS/MS analysis relative to control. The data set is classed as ADME. The note with it: probe S-mephenytoin, time 125 min.

The target in a further data set is T2, CYP1A2 (Homo sapiens, UniProt P05177).
T2 sequence (P05177 whole entry): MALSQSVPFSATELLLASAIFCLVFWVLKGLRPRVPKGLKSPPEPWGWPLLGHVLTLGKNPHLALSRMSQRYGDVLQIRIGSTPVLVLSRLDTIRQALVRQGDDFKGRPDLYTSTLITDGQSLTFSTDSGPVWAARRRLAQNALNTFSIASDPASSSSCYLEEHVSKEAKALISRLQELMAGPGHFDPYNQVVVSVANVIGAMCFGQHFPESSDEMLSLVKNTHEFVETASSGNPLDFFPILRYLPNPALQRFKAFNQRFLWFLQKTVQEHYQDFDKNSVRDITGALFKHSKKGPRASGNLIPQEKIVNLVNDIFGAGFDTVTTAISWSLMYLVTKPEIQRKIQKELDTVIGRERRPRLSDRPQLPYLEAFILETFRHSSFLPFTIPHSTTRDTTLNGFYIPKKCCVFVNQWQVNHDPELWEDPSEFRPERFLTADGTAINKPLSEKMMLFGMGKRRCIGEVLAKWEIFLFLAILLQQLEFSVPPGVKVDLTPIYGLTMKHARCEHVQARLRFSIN
Description: Inhibition of CYP1A2 in human liver microsomes at 10 uM using phenacetin as substrate preincubated for 5 mins followed by NADPH generating system addition and measured after 120 mins by LC-MS/MS analysis relative to control. The class given is ADME. The note with it: probe phenacetin, time 125 min.

The next data set addresses CYP2E1 (Homo sapiens, UniProt P05181). Description: Inhibition of CYP2E1 in human liver microsomes at 10 uM using chlorzoxazone as substrate preincubated for 5 mins followed by NADPH generating system addition and measured after 120 mins by LC-MS/MS analysis relative to control. The class given is ADME. The note with it: probe chlorzoxazone, time 125 min.
The next data set deals with CYP2C9 (Homo sapiens, UniProt P11712). Description: Inhibition of CYP2C9 in human liver microsomes at 10 uM using tolbutamide as substrate preincubated for 5 mins followed by NADPH generating system addition and measured after 120 mins by LC-MS/MS analysis relative to control. The data set is classed as ADME. The note with it: probe tolbutamide, time 125 min.
For a further data set, the target named is CYP2D6 (Homo sapiens, UniProt P10635). Description: Inhibition of CYP2D6 in human liver microsomes at 10 uM using dextromethorphan as substrate preincubated for 5 mins followed by NADPH generating system addition and measured after 120 mins by LC-MS/MS analysis relative to control. The data set is classed as ADME. The note with it: probe dextromethorphan, time 125 min.

Data set [11] can be described thus: Clearance in male Sprague-Dawley rat at 10 mg/kg, po administered as single dose by LC-MS analysis. The note with it: in vivo. The data set is classed as ADME, organism-based.
Another data set has as its target Cytochrome P450 2C19 (Homo sapiens, UniProt P33261). Description: Inhibition of CYP2C19 in human liver microsomes using S-mephenytoin as substrate preincubated for 5 mins followed by NADPH generating system addition and measured after 120 mins by LC-MS/MS. The data set is classed as ADME.

Each structure is given as a SMILES string.

CYP2C19, sequence (P33261 whole entry): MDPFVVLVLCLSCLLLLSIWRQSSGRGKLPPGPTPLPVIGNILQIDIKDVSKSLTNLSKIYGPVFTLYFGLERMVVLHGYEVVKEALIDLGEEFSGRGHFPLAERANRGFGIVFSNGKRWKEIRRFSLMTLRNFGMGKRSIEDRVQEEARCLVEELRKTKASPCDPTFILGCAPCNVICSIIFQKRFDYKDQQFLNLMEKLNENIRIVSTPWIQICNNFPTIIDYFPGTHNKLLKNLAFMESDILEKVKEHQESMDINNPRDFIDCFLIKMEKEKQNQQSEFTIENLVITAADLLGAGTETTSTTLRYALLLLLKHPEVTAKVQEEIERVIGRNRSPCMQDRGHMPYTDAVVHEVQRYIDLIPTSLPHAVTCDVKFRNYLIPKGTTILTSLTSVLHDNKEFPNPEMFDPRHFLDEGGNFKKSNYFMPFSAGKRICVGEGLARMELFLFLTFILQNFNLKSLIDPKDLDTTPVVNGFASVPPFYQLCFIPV
CYP2C9, sequence (P11712 whole entry): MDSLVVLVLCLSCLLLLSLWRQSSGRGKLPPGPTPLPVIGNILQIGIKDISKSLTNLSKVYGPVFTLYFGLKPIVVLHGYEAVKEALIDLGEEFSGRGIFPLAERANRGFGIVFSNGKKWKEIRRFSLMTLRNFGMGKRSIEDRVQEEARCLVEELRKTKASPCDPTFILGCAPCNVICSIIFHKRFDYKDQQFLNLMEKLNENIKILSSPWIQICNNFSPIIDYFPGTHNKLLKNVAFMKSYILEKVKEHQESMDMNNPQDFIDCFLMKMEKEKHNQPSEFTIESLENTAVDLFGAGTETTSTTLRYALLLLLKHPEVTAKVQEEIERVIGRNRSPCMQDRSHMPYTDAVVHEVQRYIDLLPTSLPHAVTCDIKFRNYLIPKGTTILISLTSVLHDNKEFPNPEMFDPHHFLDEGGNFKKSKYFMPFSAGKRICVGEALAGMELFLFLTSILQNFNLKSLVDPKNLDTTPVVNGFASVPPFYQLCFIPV
CYP3A4, sequence (P08684 whole entry): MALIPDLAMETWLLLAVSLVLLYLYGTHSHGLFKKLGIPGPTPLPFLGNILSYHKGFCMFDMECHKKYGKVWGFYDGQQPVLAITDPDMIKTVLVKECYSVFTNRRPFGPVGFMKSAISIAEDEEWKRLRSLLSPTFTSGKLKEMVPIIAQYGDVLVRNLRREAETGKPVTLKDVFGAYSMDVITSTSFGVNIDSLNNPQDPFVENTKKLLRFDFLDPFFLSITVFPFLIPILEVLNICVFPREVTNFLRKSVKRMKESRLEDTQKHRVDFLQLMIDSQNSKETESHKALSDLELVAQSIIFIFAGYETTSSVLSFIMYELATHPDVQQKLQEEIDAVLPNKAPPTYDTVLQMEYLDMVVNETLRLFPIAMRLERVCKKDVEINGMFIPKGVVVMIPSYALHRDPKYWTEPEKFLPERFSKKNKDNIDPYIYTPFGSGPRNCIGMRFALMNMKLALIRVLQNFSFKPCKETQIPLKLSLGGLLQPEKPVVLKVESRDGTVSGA
CYP2D6, sequence (P10635 whole entry): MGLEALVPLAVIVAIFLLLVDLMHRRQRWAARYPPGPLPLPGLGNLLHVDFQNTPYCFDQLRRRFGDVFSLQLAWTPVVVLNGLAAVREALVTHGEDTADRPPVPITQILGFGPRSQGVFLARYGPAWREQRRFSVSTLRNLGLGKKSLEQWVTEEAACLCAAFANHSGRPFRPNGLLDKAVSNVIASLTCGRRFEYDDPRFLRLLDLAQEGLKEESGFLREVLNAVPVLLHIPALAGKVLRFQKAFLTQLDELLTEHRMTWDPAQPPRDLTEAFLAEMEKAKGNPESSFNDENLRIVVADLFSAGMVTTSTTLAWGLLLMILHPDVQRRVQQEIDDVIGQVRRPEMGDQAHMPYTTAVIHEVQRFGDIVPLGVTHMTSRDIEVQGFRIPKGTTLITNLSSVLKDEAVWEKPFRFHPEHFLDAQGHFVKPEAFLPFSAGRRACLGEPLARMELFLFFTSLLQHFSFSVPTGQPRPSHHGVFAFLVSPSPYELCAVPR
CYP2E1, sequence (P05181 whole entry): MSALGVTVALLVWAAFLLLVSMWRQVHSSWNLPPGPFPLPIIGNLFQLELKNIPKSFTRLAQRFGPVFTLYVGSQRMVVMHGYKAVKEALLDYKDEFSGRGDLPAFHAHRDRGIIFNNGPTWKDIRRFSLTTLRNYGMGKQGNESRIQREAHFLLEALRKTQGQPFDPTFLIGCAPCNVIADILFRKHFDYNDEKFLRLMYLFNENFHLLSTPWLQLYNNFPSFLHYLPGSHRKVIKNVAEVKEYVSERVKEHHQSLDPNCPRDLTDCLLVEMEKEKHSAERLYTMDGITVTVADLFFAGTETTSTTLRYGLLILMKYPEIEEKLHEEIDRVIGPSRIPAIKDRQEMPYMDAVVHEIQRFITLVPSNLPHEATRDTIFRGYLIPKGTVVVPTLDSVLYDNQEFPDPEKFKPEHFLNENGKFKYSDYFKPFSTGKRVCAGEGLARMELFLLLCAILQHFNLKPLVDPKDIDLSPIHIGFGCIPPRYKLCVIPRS
Cytochrome P450 2C19, sequence (P33261 whole entry): as the sequence (P33261 whole entry) above

What is called inhibition is the share of the control response that was lost under treatment. As usually defined, the Tmax is the time at which the peak concentration occurs. As a reminder, the AUC(0-inf) is the area under the concentration-time curve extrapolated to infinity. What is called IC50 is the concentration needed to halve the response being measured. Broadly, the Cmax is the maximum level reached in the sampled fluid or tissue. What is called CL/F is the apparent clearance, not corrected for the fraction that reaches the circulation. `CCOC(=O)c1c(C)nc(-c2cccc(C#N)c2)n1OCc1ccc(C#N)cc1`: the Stability in data set [1] was 90%; in data set [4] it was 93%. The Activity in the data set on Rattus norvegicus is 46.7%. Moreover, the half-life in [2] was 13.8 h. Moreover, in data set [3], the Drug metabolism result is reported as “Metabolite_Detected”. In addition, the half-life at 0.2 µM in data set [5] was determined as 0.385 h; in [7], 2.01 h. Also, the Vz in data set [6] is 190.56 L/kg. The inhibition at 2 h, 10 µM on CYP3A4 was found to be 2.16%; against CYP2A6, 7.69%; against CYP2C19 it was 4.52%; on CYP1A2 it was 3.85%; at CYP2E1, 8.68%; at CYP2C9 it was 0.024%. For the same compound, the inhibition at 2 h, 10 µM against CYP2D6 is 31.7%. The Tmax in data set [8] was determined as 0.46 h. In data set [9], this compound showed an AUC(0-inf) of 1.14 µg·h/mL. Further, in the data set with Plasma, the IC50 was determined as 4.24 µM. The compound also had a Cmax in [10] of 0.068 µg/mL. The compound also showed a CL/F in data set [11] of 12.4 L/h/kg.
For `Cc1nc(-c2cccc(C#N)c2)n(OCc2ccc(C#N)cc2)c1C(=O)O`, the figures for the Stability in data set [1] and in data set [4] were 90% and 73%, respectively. The half-life in [2] was 13.1 h. Further, the half-life at 0.2 µM in [5] and in data set [7] was above 2 h throughout. In addition, the Vz in [6] turned out to be 239.6 L/kg. For the same compound, the inhibition at 2 h, 10 µM against CYP3A4 stood at 7.4%; against CYP2A6 it was 3.64%; at CYP2C19 it was 1.97%; at CYP1A2 it was 0.11%; on CYP2E1 it was 6.79%; at CYP2C9, 0.41%. Besides, on CYP2D6, the inhibition at 2 h, 10 µM worked out at 2.42%. Also, the Tmax in [8] came out at 0.167 h. The AUC(0-inf) in data set [9] is 0.809 µg·h/mL. Besides, the IC50 was 3.88 µM with Plasma and above 10 µM against Cytochrome P450 2C19. For the same compound, the Cmax in data set [10] stood at 0.214 µg/mL. This compound gave a CL/F in data set [11] of 15.6 L/h/kg.
